SMILES strings stand for the structures.

Assay in all cases: biochemical
Common to all, as to format: binding

Test [1] addresses T1, BLK (Homo sapiens, UniProt P51451).
T1 construct: the DNA-tagged SH2 domain concentrations used in this study were <0.1 nM; made in house; host or cells: HEK293 (transient transfection; unpurified extract)
The following applies: primary screen, 10 μM; read-out: percent of DMSO vehicle control.

Test [2] addresses T2, NCK1 (Homo sapiens, UniProt P16333).
T2 construct: the DNA-tagged SH2 domain concentrations used in this study were <0.1 nM; made in house; host or cells: HEK293 (transient transfection, unpurified extract)
As to conditions: primary screen, 10 μM; read-out: percent of DMSO vehicle control.

For test [3], the target named is T3, PIK3R3(SH2dom.C-term.) (Homo sapiens, UniProt Q92569).
T3 construct: SH2dom.C-term. denotes SH2 domain closest to C-terminus of protein; made in house; host or cells: HEK293 (transient transfection, unpurified extract)

For test [4], the target named is T4, PIK3R3(SH2dom.N-term.) (Homo sapiens, UniProt Q92569).
T4 construct: SH2dom.N-term. denotes SH2 domain closest to N-terminus of protein; made in house; host or cells: HEK293 (transient transfection, unpurified extract)
The following applies: primary screen, 10 μM; read-out: percent of DMSO vehicle control.

For test [5], the target named is T5, PLCG2(SH2dom.N-term.) (Homo sapiens, UniProt P16885).
T5 construct: SH2dom.N-term. denotes SH2 domain closest to N-terminus of protein; made in house; host or cells: HEK293 (transient transfection, unpurified extract)
T5 sequence (P16885 532-635 limits assumed): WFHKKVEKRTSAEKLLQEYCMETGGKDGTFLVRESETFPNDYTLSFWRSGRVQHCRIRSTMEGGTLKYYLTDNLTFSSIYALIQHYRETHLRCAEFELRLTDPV
As to conditions: primary screen, 10 μM; read-out: percent of DMSO vehicle control.

Test [6] deals with T6, SH2D1B (Homo sapiens, UniProt O14796).
T6 construct: made in house; host or cells: HEK293 (transient transfection), unpurified extract
T6 sequence (O14796 1-132): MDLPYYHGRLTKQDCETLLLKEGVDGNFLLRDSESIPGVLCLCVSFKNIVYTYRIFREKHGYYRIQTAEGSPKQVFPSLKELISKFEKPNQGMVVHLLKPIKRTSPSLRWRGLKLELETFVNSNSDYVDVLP
As to conditions: primary screen, 10 μM; read-out: percent of DMSO vehicle control.

The target of test [7] is T7, SHB (Homo sapiens, UniProt Q15464).
T7 construct: made in house; host or cells: HEK293 (transient transfection), unpurified extract
As to conditions: primary screen, 10 μM; read-out: percent of DMSO vehicle control.

In test [8] the target is T8, TNS4 (Homo sapiens, UniProt Q8IZW8).
T8 construct: made in house; host or cells: HEK293 (transient transfection), unpurified extract
T8 sequence (Q8IZW8 19-715): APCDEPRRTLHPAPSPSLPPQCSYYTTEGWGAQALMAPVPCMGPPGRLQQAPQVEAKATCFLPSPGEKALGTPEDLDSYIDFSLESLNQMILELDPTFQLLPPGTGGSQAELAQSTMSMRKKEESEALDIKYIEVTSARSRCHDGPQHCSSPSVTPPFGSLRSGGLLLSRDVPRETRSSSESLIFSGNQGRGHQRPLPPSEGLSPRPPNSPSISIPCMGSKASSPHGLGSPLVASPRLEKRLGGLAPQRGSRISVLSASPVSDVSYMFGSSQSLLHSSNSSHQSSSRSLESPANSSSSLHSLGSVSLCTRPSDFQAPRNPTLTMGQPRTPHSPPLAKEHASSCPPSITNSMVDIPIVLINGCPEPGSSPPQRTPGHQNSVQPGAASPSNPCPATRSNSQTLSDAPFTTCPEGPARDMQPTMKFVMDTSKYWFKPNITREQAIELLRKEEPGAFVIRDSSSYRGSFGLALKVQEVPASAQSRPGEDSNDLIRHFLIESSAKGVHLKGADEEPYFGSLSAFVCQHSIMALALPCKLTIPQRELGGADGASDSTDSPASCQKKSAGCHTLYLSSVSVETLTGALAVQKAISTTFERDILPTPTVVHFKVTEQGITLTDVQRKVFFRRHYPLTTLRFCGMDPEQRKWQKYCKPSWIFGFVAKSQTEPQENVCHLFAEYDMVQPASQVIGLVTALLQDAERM

The target of test [9] is T9, VAV2 (Homo sapiens, UniProt P52735).
T9 construct: made in house; host or cells: HEK293 (transient transfection), unpurified extract
T9 sequence (P52735 1-878): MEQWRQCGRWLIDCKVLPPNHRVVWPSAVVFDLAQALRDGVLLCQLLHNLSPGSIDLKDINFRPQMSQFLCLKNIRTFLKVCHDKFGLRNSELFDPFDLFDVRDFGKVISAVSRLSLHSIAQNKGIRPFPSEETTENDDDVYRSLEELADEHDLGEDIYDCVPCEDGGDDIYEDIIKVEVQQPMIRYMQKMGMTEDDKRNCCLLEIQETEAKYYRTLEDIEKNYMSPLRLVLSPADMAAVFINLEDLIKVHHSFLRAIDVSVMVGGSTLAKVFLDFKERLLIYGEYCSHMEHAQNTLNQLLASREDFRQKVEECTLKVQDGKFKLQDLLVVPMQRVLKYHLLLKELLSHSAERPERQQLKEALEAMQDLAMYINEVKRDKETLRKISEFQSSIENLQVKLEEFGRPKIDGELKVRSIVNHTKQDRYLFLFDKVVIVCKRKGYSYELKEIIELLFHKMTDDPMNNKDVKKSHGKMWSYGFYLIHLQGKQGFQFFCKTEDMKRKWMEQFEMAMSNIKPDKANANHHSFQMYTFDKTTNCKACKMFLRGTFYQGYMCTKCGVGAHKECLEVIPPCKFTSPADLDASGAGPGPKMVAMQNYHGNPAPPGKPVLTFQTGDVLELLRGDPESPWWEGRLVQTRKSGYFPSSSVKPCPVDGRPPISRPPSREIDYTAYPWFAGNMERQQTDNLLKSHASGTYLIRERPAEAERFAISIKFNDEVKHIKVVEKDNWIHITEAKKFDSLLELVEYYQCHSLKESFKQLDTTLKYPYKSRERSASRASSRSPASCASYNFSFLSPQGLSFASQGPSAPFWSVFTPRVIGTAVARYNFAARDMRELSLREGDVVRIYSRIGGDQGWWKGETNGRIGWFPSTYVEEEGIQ
As to conditions: primary screen, 10 μM; read-out: percent of DMSO vehicle control.

[10] abbreviates: primary screen, 10 μM, read-out: percent of DMSO vehicle control.

T7 sequence (Q15464 whole entry): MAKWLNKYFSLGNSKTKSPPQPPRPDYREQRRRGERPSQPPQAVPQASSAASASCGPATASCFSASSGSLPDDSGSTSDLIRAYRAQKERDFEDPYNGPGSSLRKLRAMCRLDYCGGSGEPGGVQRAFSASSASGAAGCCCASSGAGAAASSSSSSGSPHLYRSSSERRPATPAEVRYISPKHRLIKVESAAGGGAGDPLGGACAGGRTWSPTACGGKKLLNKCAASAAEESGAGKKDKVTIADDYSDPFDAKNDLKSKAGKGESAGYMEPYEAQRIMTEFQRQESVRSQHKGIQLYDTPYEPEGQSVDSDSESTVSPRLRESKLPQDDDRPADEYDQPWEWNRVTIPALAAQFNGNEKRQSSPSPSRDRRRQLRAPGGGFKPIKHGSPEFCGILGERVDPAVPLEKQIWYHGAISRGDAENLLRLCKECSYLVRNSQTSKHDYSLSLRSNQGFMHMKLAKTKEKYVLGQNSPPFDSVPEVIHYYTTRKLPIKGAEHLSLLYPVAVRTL
T1 sequence (P51451 124-220 limits assumed): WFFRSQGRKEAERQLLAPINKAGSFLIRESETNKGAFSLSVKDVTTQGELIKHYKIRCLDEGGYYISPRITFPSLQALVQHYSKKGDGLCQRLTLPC

In the case of `CC(C)(C)[C@H](NC(=O)/C=C/c1ccc(OP(=O)(O)O)cc1)C(=O)N1CCC[C@H]1C(=O)N(c1ccccc1)c1ccc(I)cc1` [STAT6-IN-3], the remaining activity at 10 µM was determined as 67.6 ± 11% in test [1]; 85.1 ± 10.2% in test [2]; 26.9 ± 10.2% in test [3] (setting [10]); 85.8 ± 16.7% in [4]; 51.6 ± 17.6% in test [5]; 46 ± 22.7% in test [6]. For the same compound, the remaining activity at 10 µM in test [7] is 53.4 ± 23.5%; in [8] (setting [10]), 21.6 ± 25.3%; in [9] it was 87.5 ± 11.3%. Further, the dissociation constant Kd in test [3] (dose-response, read-out: KD) stood at 1020 ± 260 nM. Besides, the KD entry in test [8] (dose-response) is reported as “No Hit”.

A word on the Kd: it is the constant that tells how readily two partners part at equilibrium.

The record behind these values is publication PMC12951562, “SH2scan: Mapping SH2 Domain-Ligand Binding Selectivity for Inhibitors and Degraders” (Journal of Medicinal Chemistry, 2026).
